The results in this text go back to patent US20230374007A1, “COMPOUNDS AND THEIR USE IN TREATING CANCER” (AstraZeneca AB, priority 2020, published 2023).

In the assay the target is T1, cereblon (CRBN)—DNA damage protein 1 (DDB1) complex (Homo sapiens, UniProt Q96SW2).
T1 construct: encoding amino acid residues 1 to 442 (Uniprot Q96SW2); hexahistidine (N); thrombin cleavage site (N); made in house; host or cells: Sf9 insect cells (baculovirus co-infection)
The experiment in a line: Cereblon HTRF binding assay. The text has this:
The synthesized sequence was designed to encode an N-terminal hexahistidine tag, a thrombin cleavage site, an AviTag™ and a tobacco etch virus protease (TEV) cleavage site followed by the CBRN sequence. The resulting protein sequence is listed below.
The synthesized sequence was designed to encode an N-terminal hexahistidine tag, a tobacco etch virus protease (TEV) cleavage site followed by the DDB1 sequence. […] The linker amino acid residues are underlined and shown in italics.
Baculovirus production of CBRN and DDB1: Recombinant bacmid and P2 virus of CBRN and DDB1 was generated according to the Bac-to-Bac Baculovirus Expression System manual (ThermoFisher Scientific).
Protein Purification: Protein purification was initiated by thawing cells (resuspended in Lysis buffer) at r.t. Once thawed, NaCl was added to a final concentration of 200 mM, followed by 0.01 μL/mL Benzonase™ and the lysate was incubated with slow stirring for 20 minutes. After the freeze-thaw lysis, the whole cell lysate was centrifuged at 48 000 g for 45 minutes and all following purification steps were done on ice or in cold-room. Supernatant (cell lysate) was mixed with 1 mL/50 mL lysate Ni Sepharose™ 6 Fast Flow (Cytiva) pre-equilibrated with Wash buffer (50 mM Tris-Cl pH 8, 20 mM Imidazole, 500 mM NaCl, 10% Glycerol, 1 mM TCEP) and incubated with slow stirring for 1 h. The mix was loaded in a 70 mL open gravity flow column, washed with 10 bed volumes of Wash buffer, and stepwise eluted with 300 mM imidazole in Wash buffer. […] After biotinylation, the CBRN/DDB1 complex was purified by Size Exclusion Chromatography on a HiLoad™ 26/60 Superdex™ 200 column equilibrated in SEC buffer (50 mM HEPES pH 7.5, 200 mM NaCl, 5% glycerol, 1 mM TCEP) before flash-freezing in liquid nitrogen and storage at −80° C.
The assay mixture in a total volume of 4 μL consists of 50 mM Tris-HCl at pH 7.5, 100 mM NaCl, 0.01% Pluronic F127, 1 mM TCEP, 500 μM EDTA, 0.2 nM CRBN-DDB1, 0.2 nM terbium cryptate labeled streptavidin, and 2 nM Cyanine 5-labeled lenalidomide as the probe. […] Reagents were dispensed into the 384-well assay microplate using a Certus Flex liquid dispenser. After incubation for 2 h at r.t., the assay plates were read on a PHERAstar FSX plate reader (BMG Labtech) in the HTRF mode. The raw data from PHERAstar was directly imported into Genedata Screener for analysis. […] The ratio was normalized to positive and negative controls on the same plates to calculate percent inhibition: I %=(I−NC)/(PC−NC), where I are readings from the compound treated well, NC and PC are average readings from negative control wells and positive control wells, respectively. IC50 values were obtained by fitting the I % vs. compound concentration [I] to I %=S0+(SInf−S0)/(1+((IC50/[I])^n)), where S0 is the fitted activity level at zero concentration of test compound, SInf is the fitted activity level at […] concentration of test compound, and n is the hill coefficient of the curve.
The IC50 values reported below are the calculated mean result of one or more experiments.
Background: Time-resolved FRET reads energy transfer from a long-lived donor to a nearby acceptor.

The IC50 is the concentration needed to halve the response being measured. A high value points to weaker potency.

Molecules are shown by their SMILES.

T1 sequence (Q96SW2 with tags, fused parts or gaps): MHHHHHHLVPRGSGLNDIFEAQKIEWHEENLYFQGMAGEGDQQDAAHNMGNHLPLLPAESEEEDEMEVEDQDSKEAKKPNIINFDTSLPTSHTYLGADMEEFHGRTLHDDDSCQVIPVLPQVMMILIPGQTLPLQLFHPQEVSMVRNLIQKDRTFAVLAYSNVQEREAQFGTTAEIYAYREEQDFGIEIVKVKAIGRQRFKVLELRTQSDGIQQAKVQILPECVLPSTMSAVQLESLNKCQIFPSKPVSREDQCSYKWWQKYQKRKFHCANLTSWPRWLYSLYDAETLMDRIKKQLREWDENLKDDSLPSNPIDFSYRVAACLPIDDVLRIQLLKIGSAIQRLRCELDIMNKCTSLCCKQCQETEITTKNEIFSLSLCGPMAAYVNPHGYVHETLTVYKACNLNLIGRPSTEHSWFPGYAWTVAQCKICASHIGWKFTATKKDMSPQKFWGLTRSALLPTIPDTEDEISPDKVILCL

For the compound `O=C1CCN(c2cccc3[nH]c(C4CCNCC4)cc23)C(=O)N1` [Example 86, 1-(2-(Piperidin-4-yl)-1H-indol-4-yl)dihydropyrimidine-2,4 (1H,3H)-dione], the IC50 was 291 nM. This lies in the sub-micromolar range.

Compound `CN1CCN(c2c[nH]c3cc(N4CCC(=O)NC4=O)ccc23)CC1` [Example 72, 1-(3-(4-Methylpiperazin-1-yl)-1H-indol-6-yl)dihydropyrimidine-2,4 (1H,3H)-dione] yielded an IC50 of 926 nM.

Compound `O=C1CCN(c2ccc3nc(C4CCNCC4)oc3c2)C(=O)N1` [Example 96, 1-(2-(Piperidin-4-yl)benzo[d]oxazol-6-yl)dihydropyrimidine-2,4 (1H,3H1)-dione] came in with an IC50 of 3740 nM. This IC50 is about 4-fold higher than that of the compound before.

In the case of `O=C1CCN(c2ccc3sc(N4CCNCC4)nc3c2)C(=O)N1` [Example 100, 1-(2-(Piperazin-1-yl)benzo[d]thiazol-5-yl)dihydropyrimidine-2,4 (1H,3H)-dione], the half-inhibitory concentration (IC50) is 1070 nM.

`CC(=O)N1CCC(c2cc3ccc(N4CCC(=O)NC4=O)cc3[nH]2)CC1` [Example 83, 1-(2-(1-Acetylpiperidin-4-yl)-1H-indol-6-yl)dihydropyrimidine-2,4 (1H,3H)-dione] yielded a concentration for half-maximal inhibition (IC50) of 113 nM.

Take `O=c1ccn(-c2ccc3cn(C4CCNCC4)nc3c2)c(=O)[nH]1` [Example 131, 1-(2-(Piperidin-4-yl)-2H-indazol-6-yl)pyrimidine-2,4 (1H,3H)-dione]: the half-inhibitory concentration (IC50) was found to be 2130 nM.

Compound `O=C1CCN(c2ccn3ccnc3c2)C(=O)N1` [Example 7, 1-(Imidazo[1,2-a]pyridin-7-yl)dihydropyrimidine-2,4 (1H,3H)-dione] showed a 50% inhibitory concentration (IC50) of 3000 nM.

Consider `O=C1CCN(c2ccc3oc(=O)[nH]c3c2)C(=O)N1` [Example 47, 1-(2-Oxo-2,3-dihydrobenzo[d]oxazol-5-yl)dihydropyrimidine-2,4 (1H,3H)-dione], for which the half-inhibitory concentration (IC50) amounted to 3060 nM. This IC50 and that of the compound before are within 1.5-fold of each other.

With `CN1CCC(c2cc3ccc(N4CCC(=O)NC4=O)cc3[nH]2)CC1` [Example 82, 1-(2-(1-Methylpiperidin-4-yl)-1H-indol-6-yl)dihydropyrimidine-2,4 (1H,3H)-dione], the half-maximal inhibitory concentration (IC50) worked out at 168 nM.

In turn, `O=C1CCN(c2ccc(N3CCNCC3)c3[nH]ccc23)C(=O)N1` [Example 123, 1-(7-(Piperazin-1-yl)-1H-indol-4-yl)dihydropyrimidine-2,4 (1H,3H)-dione] showed an IC50 of 597 nM.

On to `O=C1CCN(c2cccc3[nH]ccc23)C(=O)N1` [Example 18, 1-(1H-Indol-4-yl)dihydropyrimidine-2,4 (1H,3H)-dione], for which the IC50 stood at 347 nM.

For `O=C1CCN(c2cc(F)c3cc[nH]c3c2)C(=O)N1` [Example 50, 1-(4-Fluoro-1H-indol-6-yl)dihydropyrimidine-2,4 (1H,3H)-dione], the concentration for half-maximal inhibition (IC50) is 226 nM.

Take `N#Cc1ncc(N2CCC(=O)NC2=O)c2cc[nH]c12` [Example 135, 4-(2,4-dioxotetrahydropyrimidin-1 (2H)-yl)-1H-pyrrolo[2,3-c]pyridine-7-carbonitrile]: the IC50 turned out to be 594 nM.

Turning to `CC(=O)N1CCN(c2c[nH]c3cc(N4CCC(=O)NC4=O)ccc23)CC1` [Example 73, 1-(3-(4-Acetylpiperazin-1-yl)-1H-indol-6-yl)dihydropyrimidine-2,4 (1H,3H)-dione], the half-inhibitory concentration (IC50) is 963 nM.

In turn, `CN1CCC(n2cc3ccc(-n4ccc(=O)[nH]c4=O)cc3n2)CC1` [Example 132, 1-(2-(1-Methylpiperidin-4-yl)-2H-indazol-6-yl)pyrimidine-2,4 (1H,3H)-dione] yielded an IC50 of 2160 nM.

For the compound `O=C1CCN(c2ccc3c(N4CCNCC4)c[nH]c3c2)C(=O)N1` [Example 71, 1-(3-(Piperazin-1-yl)-1H-indol-6-yl)dihydropyrimidine-2,4 (1H,3H)-dione], the half-inhibitory concentration (IC50) amounted to 1130 nM.

`O=C1CCN(c2ccc3c(N4CCNCC4)noc3c2)C(=O)N1` [Example 93, 1-(3-(Piperazin-1-yl)benzo[d]isoxazol-6-yl)dihydropyrimidine-2,4 (1H,3H)-dione] displayed an IC50 of 12800 nM. Against the preceding compound, the IC50 is about 11-fold higher.

As to `O=C1CCN(c2ccc3cc[nH]c3c2F)C(=O)N1` [Example 54, 1-(7-Fluoro-1H-indol-6-yl)dihydropyrimidine-2,4 (1H,3H)-dione], the IC50 came to 188 nM.
